Results from patent publication US20240150377A1, “MODULATORS OF CYSTIC FIBROSIS TRANSMEMBRANE CONDUCTANCE REGULATOR” (VERTEX PHARMACEUTICALS INCORPORATED, priority 2020, published 2024).

Target: T1, CFTR (Homo sapiens, UniProt P13569, DEL508-508)
T1 construct: endogenous in cells; host or cells: primary human bronchial epithelial cells from CF subjects (F508del/MF-HBE), differentiated at air-liquid interface
Test: HBE2 assay: Ussing chamber assay of CFTR-mediated short-circuit currents
Assay type: cell-based
Settings: F508del/MF-HBE cells, 18-24 hours, 20% human serum; for Emax: read-out: HBE2 Max activity (%)
In short: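 F508del/MF-HBE cultured >14 days at air-liquid interface, mounted in Ussing chambers; transepithelial short-circuit current recorded under voltage clamp (Vhold=0 mV) at 37 °C. CFTR-mediated ISC (μA/cm^2) taken as peak forskolin response relative to steady-state current after inhibition; corrector activity assessed this way.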

[1] = 3 μM corrector, with 44 nM potentiator
[2] = corrector at a range of concentrations with 44 nM potentiator

T1 sequence (P13569 with tags, fused parts or gaps DEL508-508): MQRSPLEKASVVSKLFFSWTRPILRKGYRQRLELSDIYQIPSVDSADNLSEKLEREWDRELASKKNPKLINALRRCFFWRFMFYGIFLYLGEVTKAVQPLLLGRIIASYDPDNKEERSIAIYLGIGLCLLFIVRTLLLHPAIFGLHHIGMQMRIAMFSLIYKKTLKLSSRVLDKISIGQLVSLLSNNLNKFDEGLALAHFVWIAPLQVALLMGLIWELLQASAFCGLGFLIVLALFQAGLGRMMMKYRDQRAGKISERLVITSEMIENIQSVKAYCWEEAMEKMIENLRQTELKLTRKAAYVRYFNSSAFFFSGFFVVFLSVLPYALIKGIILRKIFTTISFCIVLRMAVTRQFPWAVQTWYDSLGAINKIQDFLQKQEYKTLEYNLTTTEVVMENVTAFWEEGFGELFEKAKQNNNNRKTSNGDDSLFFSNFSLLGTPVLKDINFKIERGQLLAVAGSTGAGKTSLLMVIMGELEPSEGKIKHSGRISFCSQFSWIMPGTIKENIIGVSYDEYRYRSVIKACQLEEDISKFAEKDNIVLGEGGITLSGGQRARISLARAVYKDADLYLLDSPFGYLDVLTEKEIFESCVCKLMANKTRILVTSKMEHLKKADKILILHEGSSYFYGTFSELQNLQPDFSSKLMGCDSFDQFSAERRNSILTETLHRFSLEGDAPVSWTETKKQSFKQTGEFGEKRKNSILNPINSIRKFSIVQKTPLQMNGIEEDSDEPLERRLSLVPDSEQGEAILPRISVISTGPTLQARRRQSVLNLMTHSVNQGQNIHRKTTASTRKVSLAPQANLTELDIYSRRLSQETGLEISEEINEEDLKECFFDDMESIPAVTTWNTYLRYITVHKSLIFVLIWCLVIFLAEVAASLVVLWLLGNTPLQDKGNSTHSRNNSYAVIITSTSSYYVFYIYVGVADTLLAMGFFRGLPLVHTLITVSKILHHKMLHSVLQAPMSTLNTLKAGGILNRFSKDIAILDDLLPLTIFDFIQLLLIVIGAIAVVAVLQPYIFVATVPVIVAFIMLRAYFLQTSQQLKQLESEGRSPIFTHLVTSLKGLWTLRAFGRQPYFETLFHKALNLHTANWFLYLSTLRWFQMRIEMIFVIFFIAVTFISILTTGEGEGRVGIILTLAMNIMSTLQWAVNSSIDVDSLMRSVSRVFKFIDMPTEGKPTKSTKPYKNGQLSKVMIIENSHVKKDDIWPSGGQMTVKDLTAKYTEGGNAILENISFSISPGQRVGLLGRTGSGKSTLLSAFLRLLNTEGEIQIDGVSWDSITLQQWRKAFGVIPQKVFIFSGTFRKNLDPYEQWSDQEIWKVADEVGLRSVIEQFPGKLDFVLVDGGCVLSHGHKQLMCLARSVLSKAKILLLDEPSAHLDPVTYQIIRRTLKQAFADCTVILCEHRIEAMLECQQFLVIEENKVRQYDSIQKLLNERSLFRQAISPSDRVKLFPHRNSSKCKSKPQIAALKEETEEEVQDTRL

| HBE2 Activity at 3 μM (%) (3 μM, with 44 nM potentiator) | Emax (with 44 nM potentiator) [%] | other results | SMILES |
| --- | --- | --- | --- |
| +++ (+++ is >60+) | – | – | COC(=O)N(C)CCN(C)c1cncc(CN2C(=O)c3cccc(c3)S(=O)(=O)Nc3nc(cc(-c4c(C)cccc4C)n3)OC[C@H]2CC(C)(C)C)n1 [Compound 1686] |
| +++ (+++ is >60+) | – | – | Cc1cccc(C)c1-c1cc2nc(n1)NS(=O)(=O)c1cccc(c1)C(=O)N(Cc1cncc(N3CC4CC3C4)n1)[C@H](CC(C)(C)C)CO2 [Compound 1687] |
| +++ (+++ is >60+) | > 60 | EC50 (with 44 nM potentiator): < 1000 nM | Cc1cccc(C)c1-c1cc2nc(n1)NS(=O)(=O)c1cccc(c1)C(=O)N(Cc1cncc(N(C)C3CCC3)n1)[C@H](CC1(C(F)(F)F)CC1)CO2 [Compound 1688] |
| +++ (+++ is >60+) | > 60 | EC50 (with 44 nM potentiator): < 1000 nM | Cc1cccc(C)c1-c1cc2nc(n1)NS(=O)(=O)c1cccc(c1)C(=O)N(Cc1cncc(N(C)C3CCC3)n1)[C@H](CC(C)(C)C(F)(F)F)CO2 [Compound 1689] |
| +++ (+++ is >60+) | – | – | Cc1cccc(C)c1-c1cc2nc(n1)NS(=O)(=O)c1cccc(c1)C(=O)N(Cc1cncc(N(C)C3CCC3)n1)[C@H](C(C)C)CO2 [Compound 1690] |
| +++ (+++ is >60+) | – | – | Cc1cccc(C)c1-c1cc2nc(n1)NS(=O)(=O)c1cccc(c1)C(=O)N(Cc1cncc(N3CC4CC3(C)C4)n1)[C@H](CC(C)(C)C)CO2 [Compound 1691] |
| +++ (+++ is >60+) | – | – | Cc1cccc(C)c1-c1cc2nc(n1)NS(=O)(=O)c1cccc(c1)C(=O)N(Cc1cncc(N3CCOC4CCCC43)n1)[C@H](CC(C)(C)C)CO2 (stereo partly shown) [Compound 1692] |
| +++ (+++ is >60+) | – | – | COCCCN(C)c1cncc(CN2C(=O)c3cccc(c3)S(=O)(=O)Nc3nc(cc(-c4c(C)cccc4C)n3)OC[C@H]2CC(C)(C)C)n1 [Compound 1693] |
| +++ (+++ is >60+) | – | – | CCCN(C)c1cncc(CN2C(=O)c3cccc(c3)S(=O)(=O)Nc3nc(cc(-c4c(C)cccc4C)n3)OC[C@H]2CC(C)(C)C)n1 [Compound 1694] |
| +++ (+++ is >60+) | – | – | CCN(C)c1cncc(CN2C(=O)c3cccc(c3)S(=O)(=O)Nc3nc(cc(-c4c(C)cccc4C)n3)OC[C@H]2CC(C)(C)C)n1 [Compound 1695] |
| +++ (+++ is >60+) | – | – | Cc1cccc(C)c1-c1cc2nc(n1)NS(=O)(=O)c1cccc(c1)C(=O)N(Cc1cncc(N(C)CCC(C)C)n1)[C@H](CC(C)(C)C)CO2 [Compound 1696] |
| +++ (+++ is >60+) | – | – | CCN(CC)c1cncc(CN2C(=O)c3cccc(c3)S(=O)(=O)Nc3nc(cc(-c4c(C)cccc4C)n3)OC[C@H]2CC(C)(C)C)n1 [Compound 1697] |
| +++ (+++ is >60+) | – | – | CCCCN(C)c1cncc(CN2C(=O)c3cccc(c3)S(=O)(=O)Nc3nc(cc(-c4c(C)cccc4C)n3)OC[C@H]2CC(C)(C)C)n1 [Compound 1698] |
| +++ (+++ is >60+) | – | – | Cc1cccc(C)c1-c1cc2nc(n1)NS(=O)(=O)c1cccc(c1)C(=O)N(Cc1cncc(N3CCC3CNC(=O)OC(C)(C)C)n1)[C@H](CC(C)(C)C)CO2 (stereo partly shown) [Compound 1699] |
| +++ (+++ is >60+) | – | – | COc1cc(CN2C(=O)c3cccc(c3)S(=O)(=O)Nc3nc(cc(-c4c(C)cccc4C)n3)OC[C@H]2CC(C)(C)C)nc(N(C)C2CCC2)c1 [Compound 1700] |
| – | > 60 | EC50 (with 44 nM potentiator): < 1000 nM | Cc1cccc(C)c1-c1cc2nc(n1)NS(=O)(=O)c1cccc(c1)C(=O)N(Cc1cncc(N(C)C3CCC3)n1)[C@H](CC(C)(C)F)CO2 [Compound 1701] |
| – | > 60 | EC50 (with 44 nM potentiator): < 1000 nM | CC[C@@H](C)[C@@H]1COc2cc(-c3c(C)cccc3C)nc(n2)NS(=O)(=O)c2cccc(c2)C(=O)N1Cc1cncc(N(C)C2CCC2)n1 [Compound 1702] |

| HBE2 Activity at 3 μM (%) (3 μM, with 44 nM potentiator) | Emax (with 44 nM potentiator) [%] | other results | SMILES |
| --- | --- | --- | --- |
| – | > 60 | EC50 (with 44 nM potentiator): < 1000 nM | CC[C@H](C)[C@@H]1COc2cc(-c3c(C)cccc3C)nc(n2)NS(=O)(=O)c2cccc(c2)C(=O)N1Cc1cncc(N(C)C2CCC2)n1 [Compound 1703] |
| +++ (+++ is >60+) | – | – | CC(C)c1ccccc1-c1cc2nc(n1)NS(=O)(=O)c1cccc(c1)C(=O)N(Cc1cncc(N(C)C3CCC3)n1)[C@H](CC(C)(C)C)CO2 [Compound 1704] |
| +++ (+++ is >60+) | > 60 | EC50 (with 44 nM potentiator): < 1000 nM | Cc1ccccc1-c1cc2nc(n1)NS(=O)(=O)c1cccc(c1)C(=O)N(Cc1cncc(N(C)C3CCC3)n1)[C@H](CC(C)(C)C)CO2 [Compound 1705] |
| +++ (+++ is >60+) | – | – | COCC1CC2(CCN2c2cncc(CN3C(=O)c4cccc(c4)S(=O)(=O)Nc4nc(cc(-c5c(C)cccc5C)n4)OC[C@H]3CC(C)(C)C)n2)C1 (stereo partly shown) [Compound 1706] |
| +++ (+++ is >60+) | – | – | COCC1CC2(CCN2c2cncc(CN3C(=O)c4cccc(c4)S(=O)(=O)Nc4nc(cc(-c5c(C)cccc5C)n4)OC[C@H]3CC(C)(C)C)n2)C1 (stereo partly shown) [Compound 1707] |
| +++ (+++ is >60+) | – | – | Cc1cccc(C)c1-c1cc2nc(n1)NS(=O)(=O)c1cccc(c1)C(=O)N(Cc1cncc(N3C[C@H]4CCC[C@H]43)n1)[C@H](CC(C)(C)C)CO2 [Compound 1708] |
| +++ (+++ is >60+) | > 60 | EC50 (with 44 nM potentiator): < 1000 nM | Cc1cccc(C)c1-c1cc2nc(n1)NS(=O)(=O)c1cccc(c1)C(=O)N(Cc1cncc(N(C)CC(C)C)n1)[C@H](CC1CC1)CO2 [Compound 1710] |
| +++ (+++ is >60+) | > 60 | EC50 (with 44 nM potentiator): < 1000 nM | Cc1cccc(C)c1-c1cc2nc(n1)NS(=O)(=O)c1cccc(c1)C(=O)N(Cc1cncc(N(C)CC(C)C)n1)[C@H](CC1(C)CC1)CO2 [Compound 1711] |
| – | > 60 | HBE2 Activity at 3 μM (%) [1]: +++ (+++ is >60+); EC50 [2]: < 1000 nM | Cc1cccc(C)c1-c1cc2nc(n1)NS(=O)(=O)c1cccc(c1)C(=O)N(Cc1cncc(N(C)CC(C)C)n1)[C@H](CC1CCC1)CO2 [Compound 1712] |
| – | – | HBE2 Activity at 3 μM (%) [1]: +++ (+++ is >60+) | Cc1cccc(C)c1-c1cc2nc(n1)NS(=O)(=O)c1cccc(c1)C(=O)N(Cc1cncc(N(C)CC(C)C)n1)[C@H](CC(C)C)CO2 [Compound 1713] |
| – | – | HBE2 Activity at 3 μM (%) [1]: +++ (+++ is >60+) | Cc1cccc(C)c1-c1cc2nc(n1)NS(=O)(=O)c1cccc(c1)C(=O)N(Cc1cnc(C)c(N(C)C3CCC3)n1)[C@H](CC(C)(C)C)CO2 [Compound 1714] |
| – | – | HBE2 Activity at 3 μM (%) [1]: +++ (+++ is >60+) | Cc1cccc(C)c1-c1cc2nc(n1)NS(=O)(=O)c1cccc(c1)C(=O)N(Cc1nccc(N(C)C(C)C)n1)[C@H](CCC(C)(C)C)CO2 [Compound 1715] |
| – | > 60 | HBE2 Activity at 3 μM (%) [1]: +++ (+++ is >60+); EC50 [2]: < 1000 nM | Cc1cccc(C)c1-c1cc2nc(n1)NS(=O)(=O)c1cccc(c1)C(=O)N(Cc1cncc(N3CCC[C@H]3C(C)C)n1)[C@H](CCC(C)(C)C)CO2 [Compound 1716] |
| – | – | HBE2 Activity at 3 μM (%) [1]: +++ (+++ is >60+) | Cc1cccc(C)c1-c1cc2nc(n1)NS(=O)(=O)c1cccc(c1)C(=O)N(Cc1cncc(N(C)CC(C)C)n1)[C@H](CCC1CC1)CO2 [Compound 1717] |
| – | – | HBE2 Activity at 3 μM (%) [1]: +++ (+++ is >60+) | Cc1cccc(C)c1-c1cc2nc(n1)NS(=O)(=O)c1cccc(c1)C(=O)N(Cc1cncc(N(C)C(C)C)n1)[C@H](CCC1CC1)CO2 [Compound 1718] |
| – | > 60 | HBE2 Activity at 3 μM (%) [1]: +++ (+++ is >60+); EC50 [2]: < 1000 nM | Cc1cccc(C)c1-c1cc2nc(n1)NS(=O)(=O)c1cccc(c1)C(=O)N(Cc1cncc(N(C)CC(C)(C)C)n1)[C@H](CCC1CC1)CO2 [Compound 1719] |
